Assay results: US12371454B2, “Cyclic peptide compound having Kras inhibitory action” (priority 2019, dated 2025)
Starred links: 1 amine or outer side, 2 acyl side, 3 side chain; linkers in the order of their positions; H or OH if unused. Positions of bridges follow the written chain, without caps; N, C: chain ends. Non-standard residues stand in square brackets, D forms with d. Residues, ends and D or L forms follow the SMILES beside them. *: point of attachment. hPhe(3-Cl-4-CF3) = N[C@@H](CCc1ccc(C(F)(F)F)c(Cl)c1)C(=O)O; X38 = CN([C@@H](Cc1cccc(OC(F)(F)F)c1)C(=O)[*:2])[*:1]; X23 = CN([C@@H](Cc1ccccc1OC(F)(F)F)C(=O)[*:2])[*:1]; hPhe(4-CF3) = N[C@@H](CCc1ccc(C(F)(F)F)cc1)C(=O)O; NMePhe(3-Cl) = CN[C@@H](Cc1cccc(Cl)c1)C(=O)O; NMePhe(4-Cl) = CN[C@@H](Cc1ccc(Cl)cc1)C(=O)O; NMePhe(4-Me) = CN[C@@H](Cc1ccc(C)cc1)C(=O)O; NMePhe(3-F) = CN[C@@H](Cc1cccc(F)c1)C(=O)O; Phe(3-Cl) = N[C@@H](Cc1cccc(Cl)c1)C(=O)O; NMeGly(cPent) = CN[C@H](C(=O)O)C1CCCC1; Phe(3-I) = N[C@@H](Cc1cccc(I)c1)C(=O)O; NMeAla(cPr) = CN[C@@H](CC1CC1)C(=O)O; NMe4Pal = CN[C@@H](Cc1ccncc1)C(=O)O; NMeCha = CN[C@@H](CC1CCCCC1)C(=O)O; hhPhe = N[C@@H](CCCc1ccccc1)C(=O)O; NMeChg = CN[C@H](C(=O)O)C1CCCCC1; NMeF = CN[C@@H](Cc1ccccc1)C(=O)O; NMeI = CC[C@H](C)[C@H](NC)C(=O)O; hPhe = N[C@@H](CCc1ccccc1)C(=O)O; NMeD = CN[C@@H](CC(=O)O)C(=O)O; NMeL = CN[C@@H](CC(C)C)C(=O)O; NMehSer = CN[C@@H](CCO)C(=O)O; NMeV = CN[C@H](C(=O)O)C(C)C; d(β3hA) = C[C@@H](N)CC(=O)O; NMeS = CN[C@@H](CO)C(=O)O; NMeA = CN[C@@H](C)C(=O)O; NMeAib = CNC(C)(C)C(=O)O; Nle = CCCC[C@H](N)C(=O)O; Piperidide = C1CCN(*)CC1; Pyrrolidide = C1CCN(*)C1; dNMeA = CN[C@H](C)C(=O)O; Ac5c = NC1(C(=O)O)CCCC1; Aze = O=C(O)[C@@H]1CCN1; Cyclobutyl = C1CC(*)C1; NEtG = CCNCC(=O)O; Sar = CNCC(=O)O

Biological target: T1, Kras and SOS1 (biotin-tagged human Kras loaded with GDP, His-tagged human SOS1) (Homo sapiens, UniProt P01116, G12D)
T1 construct: made in house; host or cells: E. coli (stated for Kras only)
Test: Protein-protein interaction inhibition between Kras and SOS1 (KrasGl2D-SOS PPI) using AlphaScreen
Type: binding
Conditions: AlphaScreen; biotin-tagged human Kras loaded with GDP, His-tagged human SOS1; read-out: KRAS G12D-SOS PPI IC50
In short: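 AlphaScreen format: Ni donor beads capture His-SOS1, streptavidin acceptor beads capture biotinylated Kras (E. coli-expressed, GDP-loaded post-purification). Excite 680 nm, read 520-620 nm.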

T1 sequence (P01116 1-188 isoform P01116-2 G12D): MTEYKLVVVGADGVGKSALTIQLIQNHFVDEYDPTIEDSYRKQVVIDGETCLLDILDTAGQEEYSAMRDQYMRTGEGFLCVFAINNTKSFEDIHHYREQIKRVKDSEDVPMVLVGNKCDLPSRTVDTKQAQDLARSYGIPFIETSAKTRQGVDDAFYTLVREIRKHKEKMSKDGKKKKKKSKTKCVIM

Row | Structure (SMILES) | IC50 [nM]
1 | CC[C@H](C)[C@@H]1NC(=O)[C@H](C(C)C)N(C)C(=O)C[C@@H](C)NC(=O)[C@H](CC(C)C)N(C)C(=O)C2(CCCC2)NC(=O)[C@H](CC(C)C)N(C)C(=O)[C@H](CCc2ccc(C(F)(F)F)cc2)NC(=O)CN(C)C(=O)[C@H](Cc2ccc(Cl)cc2)N(C)C(=O)CN(C)C(=O)[C@@H]2CCN2C1=O [Compound 538] (cyclo([Ac5c][NMeL][d(β3hA)][NMeV]I[Aze][Sar][NMePhe(4-Cl)][Sar][hPhe(4-CF3)][NMeL])) | 110
2 | CC[C@H](C)[C@@H]1NC(=O)[C@H](CC(C)C)N(C)C(=O)C[C@@H](C(=O)N2CCCCC2)N(C)C(=O)[C@H](COC2CCC2)N(C)C(=O)C2(CCCC2)NC(=O)[C@@H]2CCCN2C(=O)[C@H](CCc2ccc(C(F)(F)F)c(Cl)c2)NC(=O)CN(C)C(=O)[C@H](CC2CCCCC2)N(C)C(=O)CN(C)C(=O)CN(C)C1=O [Compound 585] ([NMeL]I[Sar][Sar][NMeCha][Sar][hPhe(3-Cl-4-CF3)]P[Ac5c][NMeS](Cyclobutyl)[NMeD]-Piperidide; lactam N-11) | 94
3 | CC[C@H](C)[C@@H]1NC(=O)[C@H](C)N(C)C(=O)C[C@@H](C(=O)N2CCCC2)NC(=O)[C@H](CC(C)C)N(C)C(=O)[C@H](Cc2ccccc2)N(C)C(=O)[C@H](CC(C)C)NC(=O)[C@H](CCc2ccc(C(F)(F)F)cc2)NC(=O)CN(C)C(=O)[C@H](Cc2ccc(Cl)cc2)N(C)C(=O)CN(C)C(=O)CN(C)C1=O [Compound 50] ([NMeA]I[Sar][Sar][NMePhe(4-Cl)][Sar][hPhe(4-CF3)]L[NMeF][NMeL]D-Pyrrolidide; lactam N-11) | 28
4 | CC[C@H](C)[C@@H]1NC(=O)[C@H](CC(C)C)N(C)C(=O)C[C@@H](C(=O)N2CCCCC2)N(C)C(=O)[C@H](CC(C)C)NC(=O)C(C)(C)N(C)C(=O)[C@H](Cc2ccc(OC)cc2)NC(=O)[C@H](Cc2cccc(I)c2)NC(=O)CN(C)C(=O)[C@H](Cc2ccc(C)cc2)N(C)C(=O)[C@@H]2CCN2C(=O)[C@H](C)N(C)C1=O [Compound 703] ([NMeL]I[NMeA][Aze][NMePhe(4-Me)][Sar][Phe(3-I)]Y(Me)[NMeAib]L[NMeD]-Piperidide; lactam N-11) | 8.5
5 | CC[C@H](C)[C@@H]1NC(=O)[C@H](C)N(C)C(=O)C[C@@H](C)NC(=O)[C@H](CC(C)C)N(C)C(=O)C2(CCCC2)NC(=O)[C@@H]2CCCN2C(=O)[C@H](CCc2ccc(C(F)(F)F)cc2)NC(=O)CN(C)C(=O)[C@H](CC2CCCCC2)N(C)C(=O)CN(C)C(=O)CN(C)C1=O [Compound 1090] (cyclo([Ac5c][NMeL][d(β3hA)][NMeA]I[Sar][Sar][NMeCha][Sar][hPhe(4-CF3)]P)) | 88
6 | CC[C@H](C)[C@@H]1NC(=O)[C@H](C)N(C)C(=O)C[C@@H](C(=O)N2CCCC2)NC(=O)[C@H](C(C)C)N(C)C(=O)[C@H](Cc2ccccc2)N(C)C(=O)[C@H](Cc2ccccc2)NC(=O)[C@H](Cc2cccc(Cl)c2)NC(=O)CN(C)C(=O)[C@H](Cc2ccc(Cl)cc2)N(C)C(=O)CN(C)C(=O)CN(CC)C1=O [Compound 224] ([NMeA]I[NEtG][Sar][NMePhe(4-Cl)][Sar][Phe(3-Cl)]F[NMeF][NMeV]D-Pyrrolidide; lactam N-11) | 230
7 | CCCC[C@@H]1NC(=O)[C@H](Cc2cccc(I)c2)NC(=O)CN(C)C(=O)[C@H](Cc2ccc(Cl)cc2)N(C)C(=O)CN(C)C(=O)CN(C)C(=O)[C@H]([C@@H](C)CC)NC(=O)[C@H](CC(C)C)N(C)C(=O)C[C@@H](C(=O)N2CCCCC2)N(C)C(=O)[C@H](CC(C)C)NC(=O)[C@H](Cc2ccccc2OC(F)(F)F)N(C)C1=O [Compound 111] ([NMeL]I[Sar][Sar][NMePhe(4-Cl)][Sar][Phe(3-I)][Nle][X23]L[NMeD]-Piperidide; lactam N-11) | 100
8 | CC[C@H](C)[C@@H]1NC(=O)[C@H](CC(C)C)N(C)C(=O)C[C@@H](C(=O)N(C)C)N(C)C(=O)[C@H]([C@@H](C)CC)N(C)C(=O)C2(CCCC2)NC(=O)[C@H](Cc2ccncc2)N(C)C(=O)[C@H](CCc2ccc(C(F)(F)F)c(Cl)c2)NC(=O)CN(C)C(=O)[C@H](Cc2ccc(C)cc2)N(C)C(=O)[C@@H]2CCN2C(=O)[C@H](C)N(C)C1=O [Compound 1962] ([NMeL]I[NMeA][Aze][NMePhe(4-Me)][Sar][hPhe(3-Cl-4-CF3)][NMe4Pal][Ac5c][NMeI][NMeD]-NMe2; lactam N-11) | 1.4
9 | CC[C@H](C)[C@@H]1NC(=O)[C@H](C)N(C)C(=O)C[C@@H](C(=O)N2CCCC2)NC(=O)[C@H](CC(C)C)N(C)C(=O)[C@H](Cc2ccccc2)N(C)C(=O)[C@H](CC(C)C)NC(=O)[C@H](Cc2cccc(Cl)c2)NC(=O)CN(C)C(=O)[C@H](Cc2ccc(Cl)cc2)N(C)C(=O)CN(C)C(=O)CN(C)C1=O [Compound 758] ([NMeA]I[Sar][Sar][NMePhe(4-Cl)][Sar][Phe(3-Cl)]L[NMeF][NMeL]D-Pyrrolidide; lactam N-11) | 140
10 | CC[C@H](C)[C@@H]1NC(=O)[C@H](C)N(C)C(=O)C[C@@H](C)NC(=O)[C@H](C2CCCC2)N(C)C(=O)C2(CCCC2)NC(=O)[C@@H]2CCCN2C(=O)[C@H](CCc2ccc(C(F)(F)F)c(Cl)c2)NC(=O)[C@@H](C)N(C)C(=O)[C@H](Cc2cccc(Cl)c2)N(C)C(=O)[C@@H]2CCN2C(=O)[C@H](C)N(C)C1=O [Compound 42] (cyclo([Ac5c][NMeGly(cPent)][d(β3hA)][NMeA]I[NMeA][Aze][NMePhe(3-Cl)][dNMeA][hPhe(3-Cl-4-CF3)]P)) | 190
11 | CC[C@H](C)[C@@H]1NC(=O)[C@H](CC(C)C)N(C)C(=O)C[C@@H](C)NC(=O)[C@H](CC2CC2)N(C)C(=O)C2(CCCC2)NC(=O)[C@@H]2CCCN2C(=O)[C@H](CCc2ccc(C(F)(F)F)c(Cl)c2)NC(=O)CN(C)C(=O)[C@H](CC2CCCCC2)N(C)C(=O)CN(C)C(=O)CN(C)C1=O [Compound 707] (cyclo([Ac5c][NMeAla(cPr)][d(β3hA)][NMeL]I[Sar][Sar][NMeCha][Sar][hPhe(3-Cl-4-CF3)]P)) | 14
12 | CC[C@H](C)[C@@H]1NC(=O)[C@H](CC(C)C)N(C)C(=O)C[C@@H](C(=O)N2CCCCC2)N(C)C(=O)[C@H](CC(C)C)NC(=O)C(C)(C)N(C)C(=O)[C@H](CCc2ccccc2)NC(=O)[C@H](Cc2cccc(I)c2)NC(=O)CN(C)C(=O)[C@H](Cc2ccc(C)cc2)N(C)C(=O)[C@@H]2CCN2C(=O)CN(C)C1=O [Compound 442] ([NMeL]I[Sar][Aze][NMePhe(4-Me)][Sar][Phe(3-I)][hPhe][NMeAib]L[NMeD]-Piperidide; lactam N-11) | 70
13 | CC[C@H](C)[C@@H]1NC(=O)[C@H](C)N(C)C(=O)C[C@@H](C)NC(=O)[C@H](C2CCCC2)N(C)C(=O)C2(CCCC2)NC(=O)[C@@H]2CCCN2C(=O)[C@H](CCc2ccc(C(F)(F)F)c(Cl)c2)NC(=O)[C@@H](C)N(C)C(=O)[C@H](Cc2ccccc2)N(C)C(=O)CN(C)C(=O)CN(C)C1=O [Compound 482] (cyclo([Ac5c][NMeGly(cPent)][d(β3hA)][NMeA]I[Sar][Sar][NMeF][dNMeA][hPhe(3-Cl-4-CF3)]P)) | 170
14 | CCCC[C@@H]1NC(=O)[C@H](Cc2cccc(I)c2)NC(=O)CN(C)C(=O)[C@H](Cc2ccc(Cl)cc2)N(C)C(=O)CN(C)C(=O)CN(C)C(=O)[C@H]([C@@H](C)CC)NC(=O)[C@H](CC(C)C)N(C)C(=O)C[C@@H](C(=O)N2CCCCC2)N(C)C(=O)[C@H](CC(C)C)NC(=O)[C@H](Cc2cccc(F)c2)N(C)C1=O [Compound 483] ([NMeL]I[Sar][Sar][NMePhe(4-Cl)][Sar][Phe(3-I)][Nle][NMePhe(3-F)]L[NMeD]-Piperidide; lactam N-11) | 17
15 | CC[C@H](C)[C@@H]1NC(=O)[C@H](CC(C)C)N(C)C(=O)C[C@@H](C(=O)N2CCCCC2)N(C)C(=O)[C@H](CCOC)N(C)C(=O)C2(CCCC2)NC(=O)[C@@H]2CCCN2C(=O)[C@H](CCc2ccc(C(F)(F)F)c(Cl)c2)NC(=O)CN(C)C(=O)[C@H](CC2CCCCC2)N(C)C(=O)CN(C)C(=O)CN(C)C1=O [Compound 744] ([NMeL]I[Sar][Sar][NMeCha][Sar][hPhe(3-Cl-4-CF3)]P[Ac5c][NMehSer](Me)[NMeD]-Piperidide; lactam N-11) | 7.5
16 | CC[C@H](C)[C@@H]1NC(=O)[C@H](C)N(C)C(=O)C[C@@H](C(=O)N2CCCCC2)N(C)C(=O)[C@H](C2CCCCC2)N(C)C(=O)C2(CCCC2)NC(=O)[C@@H]2CCCN2C(=O)[C@H](CCCc2ccccc2)NC(=O)CN(C)C(=O)[C@H](CC2CCCCC2)N(C)C(=O)CN(C)C(=O)CN(C)C1=O [Compound 633] ([NMeA]I[Sar][Sar][NMeCha][Sar][hhPhe]P[Ac5c][NMeChg][NMeD]-Piperidide; lactam N-11) | 120
17 | CC[C@H](C)[C@@H]1NC(=O)[C@H](C)N(C)C(=O)C[C@@H](C(=O)N(C)C)N(C)C(=O)[C@H]([C@@H](C)CC)N(C)C(=O)C2(CCCC2)NC(=O)[C@H](Cc2cccc(OC(F)(F)F)c2)N(C)C(=O)[C@H](CCc2ccc(C(F)(F)F)c(Cl)c2)NC(=O)CN(C)C(=O)[C@H](Cc2ccc(C)cc2)N(C)C(=O)[C@@H]2CCN2C(=O)[C@H](C)N(C)C1=O [Compound 1945] ([NMeA]I[NMeA][Aze][NMePhe(4-Me)][Sar][hPhe(3-Cl-4-CF3)][X38][Ac5c][NMeI][NMeD]-NMe2; lactam N-11) | 18
18 | CC[C@H](C)[C@@H]1NC(=O)[C@H](C)N(C)C(=O)C[C@@H](C(=O)N2CCCCC2)N(C)C(=O)[C@H](C(C)C)N(C)C(=O)C2(CCCC2)NC(=O)[C@H](Cc2cccc(F)c2)N(C)C(=O)[C@H](CCc2ccc(C(F)(F)F)c(Cl)c2)NC(=O)CN(C)C(=O)[C@H](CC2CCCCC2)N(C)C(=O)CN(C)C(=O)CN(C)C1=O [Compound 945] ([NMeA]I[Sar][Sar][NMeCha][Sar][hPhe(3-Cl-4-CF3)][NMePhe(3-F)][Ac5c][NMeV][NMeD]-Piperidide; lactam N-11) | 9.8
